Experimental data as given in patent publication US11999737B2, “Kinase inhibitors and related methods of use” (Duke University, priority 2014, dated 2024).

Legend:
RLC20 phosphorylation = test: Western blot of RLC20 phosphorylation in Ca2+-sensitized rabbit ileum; details: HS38 50 μM
Protocol: (§1) To examine the effect of ZIPK inhibition on sensitized force, muscle strips were stimulated with an intermediate calcium concentration solution (pCa 6.5). Once force reached a plateau, strips were Ca^2+-sensitized by the addition of the agonist carbachol (5 μM). Up to 2 μM of GTP was added together with the sensitizing agonist to compensate for possible loss of GTP during permeabilization. At the plateau of Ca-sensitized force (5-10 min upon stimulation), the ZIPK inhibitor, HS38 (50 μM) or diluent (0.1% DMSO) was added and the force relaxation time course was recorded. Tissue samples were frozen 20 min after the addition of HS38 for biochemical assays of RLC20 and MYPT1 phosphorylation.
(§2) MYPT1 and RLC20 phosphorylation: To examine the phosphorylation of MYPT1 and RLC20, rabbit ileum SM strips were treated as described above and previously reported. (Gong et al. (1995), J. Physiol.-London 486, 113-122; Kitazawa et al. (1989) J. Biol. Chem. 264, 5339-5342; Kobayashi et al. (1991) Am. J. Physiol. 260, C364-C370), Following the stimulation protocols, muscle strips were immediately frozen by immersion in −80° C. acetone with trichloroacetic acid (10% w/v) and stored at −80° C. […] Phosphorylation of MYPT1 Thr696 and of RLC20 was determined by SDS-PAGE and Western blotting. […]

[1] = test system: MYPT1 Thr696 phosphorylation; test: Western blot of MYPT1 Thr696 phosphorylation in Ca2+-sensitized rabbit ileum; details: HS38 50 μM
Protocol: as §1, §2

[2] = test system: posterior cerebral arteries of spontaneous hypertensive rat (SHR); test: Pressure myography of posterior cerebral arteries of SHR, enhanced myogenic tone; details: HS-38 10 μM, 10-wk SHR
Description: Data are means (n=2 animals) for size-matched vessels from 10-wk SHR rats. The average maximum passive diameters at 120 mmHg were 280 μm. Representative pressure-induced changes in arteriolar diameter (A) as well as mean diameter-pressure relationships (B) and active myogenic constriction (C) are shown.
Posterior cerebral arteries (PCAs) from male Sprague-Dawley rats were isolated and mounted/cannulated for pressure myography. Briefly, 2-3 mm arterial segments are mounted across glass canuli in an arteriograph chamber attached to a pressure myograph (Living Systems, Burlington, Vt. USA) and tied in place using silk suture. Endothelial cells are removed by passing a stream of air bubbles through the vessel lumen (this methodology was confirmed by loss of dilatory response to acetylcholine). […] After this, arteriole myogenic responses (i.e., vessel diameter) to increasing luminal pressure were monitored ex vivo in the absence or presence of HS-38. […] This series of steps is repeated in normal Krebs buffer, with the addition of ZIPK inhibitor (i.e., 10 μM HS-38) and finally in Ca^2+ free Krebs (same constitution as normal Krebs with no CaCl2 and added EGTA (2 mM), Data are collected as average vessel diameter over stable region of each step and expressed as a percentage of the maximal passive vessel diameter (120 mmHg, 0Ca^2+) to standardize for variation in size of […]. […]

LC20 monophosphorylation = test system: LC20 monophosphorylation; design: species or system rat
[3] = test system: isolated PCA vessels (posterior cerebral artery of the rat); test: Dilation of isolated PCA vessels previously constricted with 5HT
Description: FIG. 47 is a graph of HS-38 concentration versus percent dilation of isolated PCA vessels (posterior cerebral artery of the rat) previously constricted with 5HT.
ZIPK expression differences within different vascular beds may provide distinct pharmacology.

CC(Sc1nc2c(cnn2-c2cccc(Cl)c2)c(=O)[nH]1)C(N)=O (centres unmarked) [HS38]
RLC20 phosphorylation level (RLC20 phosphorylation): significantly reduced
MYPT1 Thr696 phosphorylation level [1]: significantly reduced
enhanced myogenic tone at low basal luminal pressures [2]: can be attenuated
levels of LC20 monophosphorylation induced by KCl and Ang II (LC20 monophosphorylation): could attenuate
dilation of vessels previously constricted with 5HT [3]: induced dilation
